Converted amounts (≈) assume the structure as drawn.
Tests used:
Assay type in all cases: physicochemical
[1] = Dissolution experiments in water (dissolution kinetics); details: 37°C
Protocol: For each timepoint (5 min, 10 min, 20 min, 35 min, 60 min and 1440 min) of the dissolution experiment, three samples each of X-ray amorphous and crystalline ciclesonide were prepared by weighing a defined amount of in each case about 15 mg into a 250 ml conical wide-necked Erlenmeyer flask and stirring (850 rpm, glass coated magnetic stir bar, having a length of 2.4 cm and a diameter of 0.59 cm) the samples at 37°C in 100 ml water (Millipore quality, ELIX 3, Gradient A 10, pH 5.92 - 6.00). The moment of the addition of water was defined as to. The tempering of the samples was performed using an air bath. After the desired stirring time, the complete samples were filtered through a 0.2 µm membrane filter (Schleicher & Schuell, RC 0.2 µm Spartan 30/A) and concentrated on a Sep-Pak cartridge (Waters Sep-Pak cartridge C18, WAT051910). The cartridge was then eluted with ethanol (gradient grade, Merck). The ciclesonide in the ethanol solution was then quantified by HPLC (LaChrom®-HPLC System Series 7000, column: Zorbax SB phenyl, eluent: water/ethanol 38 % : 62 % (v/v) isocratic, column temperature: 60°C, injection volume: 50 µL, UV-detection at 243 nm) against an external standard.

[2] = Saturation solubility experiments in water; details: 37°C, 30 min ultrasonic treatment then stirred 24 hours; for saturation solubility: 1440 min
Protocol: Defined amounts of in each case about 14 to 25 mg of X-ray amorphous or crystalline ciclesonide were weighed into a conical Erlenmeyer flask equipped with a rubber stopper (n = 3). 100 ml of water (Millipore quality, ELIX 3, Gradient A 10, pH 5.92 - 6.00) were added and 30 minutes of ultrasonic treatment was applied to the samples. Afterwards the samples were stirred in the dark for 24 hours at 37°C in a water bath. After the desired stirring time, each sample was filtered through a 0.2 µm membrane filter (Schleicher & Schuell, RC 0.2 µm Spartan 30/A) and concentrated on a Sep-Pak cartridge (Waters Sep-Pak cartridge C18, WAT051910). Then the cartridge was eluted with ethanol (gradient grade, Merck). The ciclesonide in the ethanol solution was then quantified by HPLC (LaChrom®-HPLC System Series 7000, column: Zorbax SB phenyl, eluent: water/ethanol 38 % : 62 % (v/v) isocratic, column temperature: 60°C, injection volume: 50 µL, UV-detection at 243 nm) against an external standard.

[3] = Stability under elevated pressure (recrystallization); details: pressure of up to 2.500 for 5 min
Description: Such a stability against pressure is particularly desirable when a pharmaceutical agent is used for preparation of solid pharmaceutical compositions such as tablets or granules.

[4] = Hygroscopicity
[5] = listed as crystalline form of ciclesonide

Structure (SMILES)	concentration of dissolved ingredient within 5 minutes ([1]; 5 minutes)	concentration of dissolved ingredient after 20 minutes ([1]; 20 minutes)	concentration of dissolved ingredient relative to crystalline ciclesonide after 1 hour ([1]; after 1 hour, amorphous versus crystalline)	concentration of dissolved ciclesonide after 24 hours [1]	saturation solubility [2]	stability under pressure (signs of recrystallization) [3]	hygroscopicity [4]	solubility at 1 h ([1]; after 1 hour)	concentration of dissolved ciclesonide after 24 hours [1, 5]	solubility at 24 h [2]	saturation solubility [2, 5]
CC(C)C(=O)OCC(=O)C12OC(C3CCCCC3)OC1CC1C3CCC4=CC(=O)C=CC4(C)C3C(O)CC12C (stereo not drawn) [amorphous ciclesonide, 16,17-[(Cyclohexyl-methylene)bis(oxy)]-11-hydroxy-21-(2-methyl-1-oxopropoxy)-pregna-1,4-diene-3,20-dione[11β,16α]]	290 ng/mL	340 ng/mL	about sevenfold higher	105 ng/mL	0.0916 ± 0.0052 µg/mL	did not show any signs of recrystallization	not hygroscopic	–	–	–	–
CC(C)C(=O)OCC(=O)C12OC(C3CCCCC3)OC1CC1C3CCC4=CC(=O)C=CC4(C)C3C(O)CC12C (stereo not drawn) [crystalline ciclesonide, 16,17-[(Cyclohexyl-methylene)bis(oxy)]-11-hydroxy-21-(2-methyl-1-oxopropoxy)-pregna-1,4-diene-3,20-dione[11β,16α], reference compound]	–	–	–	64 ng/mL	0.0901 ± 0.0022 µg/mL	–	–	~0.05 µg/mL (≈ 0.0925 µM)	about 64 µg/l	0.091 µg/mL (≈ 0.168 µM)	about 91 µg/l

Source: patent EP2022796A1, “Amorphous ciclesonide” (Nycomed GmbH, priority 2007, dated 2009)
